According to patent publication US8278352B2, “Pesticide compositions and methods” (Commonwealth Scientific & Industrial Research Organisation, priority 2004, dated 2012):
“Also recorded” adds a separate entry of the source. Where a name gives a salt, the structure may show the parent alone.

Columns and labels:
[1] = Stability of ethyl formate and methyl isothiocyanate formulation stored at 25° C.; assay type: physicochemical; conditions: for stability when formulated and stored: 25° C., 2 months; for percent of the original fumigant present (M/Mo): formulation stored at 25° C.
Experimental: The stability of ethyl formate and methyl isothiocyanate as a fumigant formulation stored at 25° C. was assessed for a period of 1 day, 1 month and 2 months. […] This is also graphically represented in FIG. 1.

[2] = tested on: adults of Sitophilus oryzae; assay: Toxicity study on adults of Sitophilus oryzae (fumigation, mortality); assay type: in vivo; conditions: 25° C., 24 hours fumigation
Experimental: The insect species studied were laboratory strains of the rice weevil Sitophilus oryzae present as the egg, larvae, pupae or adult and mixed aged cultures thereof in bulk stores of wheat.
Toxicity studies of ethyl formate alone compared with ethyl formate and […] were conducted on adults of the rice weevil Sitophilus oryzae at 25° C. and 24 hours fumigation.

[3] = tested on: mixed aged cultures (egg, larvae and pupae) of S. oryzae; assay: Emerging adult study on mixed aged cultures of S. oryzae; assay type: in vivo; conditions: Sitophilus oryzae, 25° C., 6 hours fumigation, read-out: emerging adult population, % of control
Experimental: Table 3 compares the toxicity of ethyl formate alone and ethyl formate+methyl isothiocyanate to mixed aged cultures (egg, larvae and pupae) of S. oryzae at 25° C. after 6 hours fumigation at two concentrations.

pupae of S. oryzae = assay: Emerging adult study on pupae of S. oryzae; assay type: in vivo, Sitophilus oryzae; conditions: 25° C.
Experimental: Table 4 compares the toxicity of ethyl formate alone and ethyl formate+methyl isothiocyanate to pupae of S. oryzae at 25° C. after 6 hours fumigation at two concentrations.
Table 5 compares the toxicity of ethyl formate alone and ethyl formate+methyl isothiocyanate to pupae of S. oryzae at 25° C. after 24 hours fumigation at two concentrations.

[4] = 4 tonne outloading trial: fumigant concentration next day; conditions: 160 g/t, tray of wheat, overnight, 20° C.
Experimental: During outloading, wheat was treated/fumigated with a 95:5 (w:w) ratio of ethyl formate+methyl isothiocyanate at a rate of 160 g/t. The treated wheat was then transferred by auger into a 4 tonne truck tray and then covered and held overnight (see FIG. 10).

Row | Compound | stability when formulated and stored [1] | percent of the original fumigant present (M/Mo) ([1]; 1 Day) | percent of the original fumigant present (M/Mo) ([1]; 1 Month) | percent of the original fumigant present (M/Mo) ([1]; 2 Months) | mortality ([2]; 5.9 mg/L) | mortality at 5.9 µg/mL ([2]; Sitophilus oryzae, 5.9 mg/L) | mortality at 11.8 µg/mL ([2]; Sitophilus oryzae, 11.8 mg/L) | activity at 67.4 µg/mL ([3]; 67.4 mg/L) | activity at 101.1 µg/mL ([3]; 101.1 mg/L) | emerging adult % (pupae of S. oryzae; 34.8 mg/L, 24 hours fumigation) | emerging adult % (pupae of S. oryzae; 67.4 mg/L, 6 hours fumigation) | emerging adult % (pupae of S. oryzae; 67.4 mg/L, 24 hours fumigation) | emerging adult % (pupae of S. oryzae; 101.1 mg/L, 6 hours fumigation) | concentration of fumigant component on the next day [4]
1 | CCOC=O [EtF, ethyl formate] | stable | 100% | 102% | 98.5% | inactive; also recorded: unaffected | 0% | 48% | 27% | 5% | 19% | 24% | 9% | 12% | below TLV
2 | CN=C=S [MITC, methyl isothiocyanate] | stable | 100% | 98% | 101.5% | – | – | – | – | – | – | – | – | – | below TLV
